In the NIST ThermoML archive (doi:10.1021/acs.jced.6b00483):
Values joined by “and” are separate entries in the source; they are usually repeats but may differ in a detail not shown here. Equal entries are not always repeated.

Columns and labels:
[1] = Molar enthalpy of transition or fusion; conditions: Crystal 3; DSC
[2] = DSC
[3] = molar heat capacity at constant pressure; conditions: 101.33 kPa, Crystal 3, DSC

NC(N)=C([N+](=O)[O-])[N+](=O)[O-] [1,1-diamino-2,2-dinitroethene]
Conditions	Molar enthalpy of transition or fusion
[1]	0.623 kcal/mol and 0.676 kcal/mol

Conditions	Triple point temperature [K]	molar heat capacity at constant pressure [J/K/mol]
[2], Crystal 2	439.2	–
[2], Crystal 3	393.7	–
[3], 345 K	–	191.17
[3], 350 K	–	193.24
[3], 355 K	–	195.17
[3], 360 K	–	197.24
[3], 365 K	–	199.16
[3], 370 K	–	201.24
[3], 375 K	–	203.16
[3], 380 K	–	205.09
[3], 385 K	–	207.16
